“Also recorded” adds a separate entry of the source.
Assays:
[1] = tested on: diaphragm fiber bundle of CHF mice; assay: Contractile function of diaphragm fiber bundles, CHF mice; format: in vivo
Procedure: To provide a direct functional assessment, the contractility in skeletal muscle fiber bundles, i.e. fibre bundle from the diaphragm of MCT mice and CIF mice, was measured as follows. A fiber bundle from the diaphragm was isolated to allow in vitro contractile function to be assessed using a length-controlled lever system (301B, Aurora Scientific Inc., Aurora, Canada), as described by Bowen et al., FASEB J, 2017, 31. Briefly, a muscle bundle was mounted vertically in a buffer-filled organ bath (˜22° C.), set at optimal length, and after 15 min was stimulated over a force-frequency protocol between 1-300 Hz (600 mA; 500 ms train duration; 0.25 ms pulse width). […] Shortening velocity was determined 10 ms after the first change in length and on the linear section of the transient (DMA software, Aurora Scientific). Force (N) was normalized to muscle cross-sectional area (CSA; cm^2) by dividing muscle mass (g) by the product of Lo (cm) and estimated muscle density (1.06), which allowed specific force in N/cm^2 to be calculated. Shortening velocity was normalized to optimal muscle length (in Lo/s), while power was calculated for each load as the product of shortening velocity and specific force (in W/cm^2).

[2] = tested on: C2C12 myotubes (myocytes); assay: Cytotoxicity, LDH release in cultured myotubes (myocytes); format: cell-based, Murine; conditions: increasing concentrations, 24 h
Procedure: Murine C2C12 myoblasts (CRL-1772, ATCC) were cultured in DMEM (Lonza; Basel, Switzerland) supplemented with 10% fetal calf serum (FCS; Gibco®Invitrogen, Carlsbad, CA). For induction of differentiation into myotubes, subconfluent cultures were switched to DMEM containing 2% horse serum (Sigma-Aldrich; Seelze, Germany). Myotubes were subsequently pre-treated for 2 h with increasing compound concentrations (0.1 to 10 μmol/L, dissolved in DMSO) or with an equal volume of DMSO before treatment for 24 h with 10 μmol/L dexamethasone (DEX; Sigma-Aldrich; Seelze, Germany). Myotube diameter was then evaluated by image analysis software (Analysis 3.0, Olympus Soft Imaging Solutions GmbH, Munster, Germany). To determine cytotoxicity of selected compounds, myoblasts or myotubes were incubated with increasing concentrations for 24 h. Subsequently, the concentration of lactate dehydrogenase (LDH) activity was quantified in the cell culture supernatant as a measure for cell destruction as described in Bellocci et al., Anal Biochem, 2008, 374, 48-55.

[3] = tested on: MuRF1, Nox 2, LC3 I/II, nitrotyrosine; assay: Protein expression and nitrotyrosine in muscle tissue of B16F10 mice; format: in vivo; conditions: tumor+compound vs tumor
Procedure: Protein expression of MuRF1, Nox 2 and LC3 I/II in muscle tissue of B16F10 mice was determined as described above for the MCT and CHF mice. In addition, the level of the reactive oxygen species marker nitrotyrosine was determined.

Cc1cc(=O)oc2cc(OCc3ccc(C(=O)OCC(=O)NC(=O)NCc4ccco4)cc3)ccc12 [MyoMed-946, [2-(2-furylmethylcarbamoylamino)-2-oxo-ethyl] 4-[(4-methyl-2-oxo-chromen-7-yl)oxymethyl]benzoate]
post-infarct diaphragm weakness (diaphragm myopathy) ([1]; CHF mice fed compound vs control chow, week 10): protected mice from such a post-infarct diaphragm weakness
loss of diaphragm function and diaphragm maximal force due to chronic heart failure ([1]; CHF mice fed compound vs untreated CHF mice): significantly reduced
toxicity (LDH release) [2]: low toxicity
downregulation of expression levels of LC3 I/II [3]: attenuated; also recorded: not observed
expression of Nox 2 [3]: attenuated; also recorded: significantly reduced
tissue level of nitrotyrosine [3]: attenuated; also recorded: significantly reduced
up-regulation of MuRF1 expression [3]: attenuated; also recorded: prevented
